Laboratory results reported in ChEMBL document CHEMBL6096644, “Synthesis and structure-affinity relationships of spirocyclic σ1 receptor ligands with tetrahydropyran scaffold” (Eur J Med Chem, 2025).

Legend:
physchem = details: n-octanol/MOPS aqueous buffer, pH 7.4
Description: Distribution coefficient, logD of compound in n-Octanol/MOPS aqueous buffer at pH 7.4 by shake-flask method based mass spectrometry analysis

in vitro [1] = details: mouse, liver microsomes
Description: Metabolic stability in mouse liver microsomes assessed as parent compound remaining measured after 90 mins in presence of NADPH/H+ by HPLC analysis

in vitro [2] = details: human, human serum
Description: Plasma protein binding in human serum by HPAC analysis

Row | logD (physchem) | remaining at 1.5 h (in vitro [1]) [%] | fraction unbound (in vitro [2]) | SMILES
1 | 2.42 | 74 | 0.15 | O=c1oc2ccccc2n1C1CCOC2(CCN(Cc3ccccc3)CC2)C1 (stereo not given)
2 | 3.33 | – | – | Oc1cccc(CN2CCC3(CC2)CC(CCc2ccccc2)CCO3)c1 (stereo not given)
3 | 2.34 | – | – | c1cc2c(cc1C1CCOC3(CCN(CC4CCCC4)CC3)C1)CCO2 (stereo not given)
